Experimental data reported in patent US20230339981A1, “KRAS G12D MODULATING COMPOUNDS” (priority 2022, published 2023).

Assays:
GP2D (KRAS G12D) cells = assay: 2D cell viability assay (CellTiter-Glo); type: cell-based; settings: 4 days
How it was run: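 Viability was read by CellTiter-Glo after 4 days at 37 °C of 2D culture of KRAS G12D GP2D cells (1000/well, RPMI, 10% FBS) on pre-spotted threefold compound dilutions. EC50 was fitted with a sigmoidal dose-response model as the point of half-maximal luminescence loss.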

GDP-loaded KRAS G12D = GDP-loaded KRAS G12D (Homo sapiens (Human), UniProt P01116, G12D); assay: KRAS G12D (GDP) biochemical assay (TR-FRET probe displacement); type: binding; settings: 2 hours
How it was run: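 TR-FRET probe displacement: 1:3 DMSO serial dilutions pre-incubated 30 min with GDP-bound KRAS G12D, followed by Eu-streptavidin/probe for 2 h at room temperature (Hepes pH 7.4, NaCl, MgCl2, Tween-20 buffer). IC50 defined as concentration halving TR-FRET ratio, from sigmoidal dose-response fit.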

Compound	EC50 (GP2D (KRAS G12D) cells; GP2d, 96 h) [nM]	IC50 (GDP-loaded KRAS G12D) [nM]	EC50 (GP2D (KRAS G12D) cells) [nM]
C#Cc1c(F)ccc2cccc(-c3nc4c5c(nc(OCC6(CN7CCC(C(F)(F)F)CC7)CC6)nc5c3F)N3C[C@H]5CC[C@H](N5)[C@@H]3[C@@H](C)C4)c12 [Example 146, (5S,5aS,6S,9R)-2-(8-ethynyl-7-fluoronaphthalen-1-yl)-1-fluoro-5-methyl-12-((1-((4-(trifluoromethyl)piperidin-1-yl)methyl)cyclopropyl)methoxy)-4,5,5a,6,7,8,9,10-octahydro-3,10a,11,13,14-pentaaza-6,9-methanonaphtho[1,8-ab]heptalene]	100	15.6	
(6aR,7S,10R)-2-(8-ethynyl-7-fluoronaphthalen-1-yl)-1-fluoro-13-(((3S,7aS)-3-(((2-(trifluoromethyl)pyrimidin-4-yl)oxy)methyl)tetrahydro-1H-pyrrolizin-7a(5H)-yl)methoxy)-5,6,6a,7,8,9,10,11-octahydro-4H-3,11a,12,14,15-pentaaza-7,10-methanocyclohepta[4,5]cycloocta[1,2,3-de]naphthalene [Example 153]		0.3	4.3
C#Cc1c(F)ccc2cc(O)cc(-c3nc4c5c(nc(OCC6(CN7CCC[C@@H](F)C7)CC6)nc5c3F)N3C[C@H]5CC[C@H](N5)[C@H]3CO4)c12 [Example 34, 5-ethynyl-6-fluoro-4-((5aS,6S,9R)-1-fluoro-12-((1-(((R)-3-fluoropiperidin-1-yl)methyl)cyclopropyl)methoxy)-5a,6,7,8,9,10-hexahydro-5H-4-oxa-3,10a,11,13,14-pentaaza-6,9-methanonaphtho[1,8-ab]heptalen-2-yl)naphthalen-2-ol]	2	0.2	
C#Cc1c(F)ccc2cc(O)cc(-c3nc4c5c(nc(OC[C@@]67CCCN6[C@H](COC(=O)N(C)C(F)(F)F)CC7)nc5c3F)N3C[C@H]5CC[C@H](N5)[C@H]3CO4)c12 [Example 45, ((3S,7aS)-7a-((((5aS,6S,9R)-2-(8-ethynyl-7-fluoro-3-hydroxynaphthalen-1-yl)-1-fluoro-5a,6,7,8,9,10-hexahydro-5H-4-oxa-3,10a,11,13,14-pentaaza-6,9-methanonaphtho[1,8-ab]heptalen-12-yl)oxy)methyl)hexahydro-1H-pyrrolizin-3-yl)methyl methyl(trifluoromethyl)carbamate]	4	0.3	
C#Cc1c(F)ccc2cccc(-c3nc4c5c(nc(OC[C@@]67CCCN6[C@H](COCC(F)(F)F)CC7)nc5c3F)N3C[C@H]5CC[C@H](N5)[C@H]3CC4)c12 [Example 164, (5aR,6S,9R)-2-(8-ethynyl-7-fluoronaphthalen-1-yl)-1-fluoro-12-(((3S,7aS)-3-((2,2,2-trifluoroethoxy)methyl)tetrahydro-1H-pyrrolizin-7a(5H)-yl)methoxy)-4,5,5a,6,7,8,9,10-octahydro-3,10a,11,13,14-pentaaza-6,9-methanonaphtho[1,8-ab]heptalene]	38	0.3	
C#Cc1c(F)ccc2cc(O)cc(-c3nc4c5c(nc(OCC6(CN7CCC[C@H](F)C7)CC6)nc5c3F)N3C[C@H]5CC[C@H](N5)[C@H]3CO4)c12 [Example 33, 5-ethynyl-6-fluoro-4-((5aS,6S,9R)-1-fluoro-12-((1-(((S)-3-fluoropiperidin-1-yl)methyl)cyclopropyl)methoxy)-5a,6,7,8,9,10-hexahydro-5H-4-oxa-3,10a,11,13,14-pentaaza-6,9-methanonaphtho[1,8-ab]heptalen-2-yl)naphthalen-2-ol]	3	0.3	
C#Cc1c(F)ccc2cccc(-c3nc4c5c(nc(OC[C@@]67CCCN6[C@H](CSc6cc(C(F)(F)F)ncn6)CC7)nc5c3F)N3C[C@H]5CC[C@H](N5)[C@H]3CCC4)c12 [Example 201, (6aR,7S,10R)-2-(8-ethynyl-7-fluoronaphthalen-1-yl)-1-fluoro-13-(((3S,7aS)-3-(((6-(trifluoromethyl)pyrimidin-4-yl)thio)methyl)tetrahydro-1H-pyrrolizin-7a(5H)-yl)methoxy)-5,6,6a,7,8,9,10,11-octahydro-4H-3,11a,12,14,15-pentaaza-7,10-methanocyclohepta[4,5]cycloocta[1,2,3-de]naphthalene]	10	0.02	
C#Cc1c(F)ccc2cccc(-c3cc4c5c(nc(OC[C@@]67CCCN6C[C@H](F)C7)nc5c3F)N3C[C@H]5CC[C@H](N5)[C@H]3CCC4)c12 [Example 192, (1S,4R,15aR)-11-(8-ethynyl-7-fluoronaphthalen-1-yl)-10-fluoro-8-(((2R,7aS)-2-fluorotetrahydro-1H-pyrrolizin-7a(5H)-yl)methoxy)-2,3,4,5,13,14,15,15a-octahydro-1H-1,4-epiminoazepino[1′,2′:1,8]azocino[2,3,4-de]quinazoline]	4.5	0.1	
C#Cc1c(F)ccc2cccc(-c3nc4c5c(nc(OC[C@@]67CCCN6[C@H](COC(C(F)(F)F)(C(F)(F)F)C(F)(F)F)CC7)nc5c3F)N3C[C@H]5CC[C@H](N5)[C@H]3CC4)c12 [Example 187, (5aR,6S,9R)-2-(8-ethynyl-7-fluoronaphthalen-1-yl)-1-fluoro-12-(((3S,7aS)-3-(((1,1,1,3,3,3-hexafluoro-2-(trifluoromethyl)propan-2-yl)oxy)methyl)tetrahydro-1H-pyrrolizin-7a(5H)-yl)methoxy)-4,5,5a,6,7,8,9,10-octahydro-3,10a,11,13,14-pentaaza-6,9-methanonaphtho[1,8-ab]heptalene]	62	0.9	
C#Cc1c(F)ccc2cccc(-c3nc4c5c(nc(OCC67CC8(CC8)CN6CC6(CC6)C7)nc5c3F)N3C[C@H]5CC[C@H](N5)[C@@H]3[C@@H](C)C4)c12 [Example 158]	100	12.5	
C#Cc1c(F)ccc2cccc(-c3nc4c5c(nc(OC[C@@]67CCCN6[C@H](COc6cc(C(F)F)ncn6)CC7)nc5c3F)N3C[C@H]5CC[C@H](N5)[C@H]3CCC4)c12 [Example 205, (6aR,7S,10R)-13-(((3S,7aS)-3-(((6-(difluoromethyl)pyrimidin-4-yl)oxy)methyl)tetrahydro-1H-pyrrolizin-7a(5H)-yl)methoxy)-2-(8-ethynyl-7-fluoronaphthalen-1-yl)-1-fluoro-5,6,6a,7,8,9,10,11-octahydro-4H-3,11a,12,14,15-pentaaza-7,10-methanocyclohepta[4,5]cycloocta[1,2,3-de]naphthalene]	2.2	0.06	
C#Cc1c(F)ccc2cccc(-c3nc4c5c(nc(OC[C@@]67CCCN6C[C@H](F)C7)nc5c3F)N3C[C@H]5CC[C@H](N5)[C@H]3CC4(F)F)c12 [Example 98, (5aR,6S,9R)-2-(8-ethynyl-7-fluoronaphthalen-1-yl)-1,4,4-trifluoro-12-(((2R,7aS)-2-fluorotetrahydro-1H-pyrrolizin-7a(5H)-yl)methoxy)-4,5,5a,6,7,8,9,10-octahydro-3,10a,11,13,14-pentaaza-6,9-methanonaphtho[1,8-ab]heptalene]	124	12.6	
C#Cc1c(F)ccc2cccc(-c3nc4c5c(nc(OC[C@]67CCCN6CC(OC(C(F)(F)F)(C(F)(F)F)C(F)(F)F)C7)nc5c3F)N3C[C@H]5CC[C@H](N5)[C@H]3CC4)c12 (stereo partly drawn) [Example 114, (5aR,6S,9R)-2-(8-ethynyl-7-fluoronaphthalen-1-yl)-1-fluoro-12-((trans-2-((1,1,1,3,3,3-hexafluoro-2-(trifluoromethyl)propan-2-yl)oxy)tetrahydro-1H-pyrrolizin-7a(5H)-yl)methoxy)-4,5,5a,6,7,8,9,1O-octahydro-3,10a,11,13,14-pentaaza-6,9-methanonaphtho[1,8-ab]heptalene]	1000	125	
Oc1cc(-c2nc3c4c(nc(OC[C@@]56CCCN5C[C@H](F)C6)nc4c2F)N2C[C@H]4CC[C@H](N4)[C@H]2CO3)c2c(F)c(Cl)ccc2c1 [Example 6, 6-chloro-5-fluoro-4-((5aS,6S,9R)-1-fluoro-12-(((2R,7aS)-2-fluorotetrahydro-1H-pyrrolizin-7a(5H)-yl)methoxy)-5a,6,7,8,9,10-hexahydro-5H-4-oxa-3,10a,11,13,14-pentaaza-6,9-methanonaphtho[1,8-ab]heptalen-2-yl)naphthalen-2-ol]	70	2	
C#Cc1c(F)ccc2cccc(-c3nc4c5c(nc(OCC67CCCN6CCC7)nc5c3F)N3C[C@H]5CC[C@H](N5)[C@@H]3[C@@H](C)C4)c12 [Example 157, (5S,5aS,6S,9R)-2-(8-ethynyl-7-fluoronaphthalen-1-yl)-1-fluoro-5-methyl-12-((tetrahydro-1H-pyrrolizin-7a(5H)-yl)methoxy)-4,5,5a,6,7,8,9,10-octahydro-3,10a,11,13,14-pentaaza-6,9-methanonaphtho[1,8-ab]heptalene]	29.4	6.4	
C#Cc1c(F)ccc2cc(O)cc(-c3nc4c5c(nc(OCC6(CN7CCC(F)CC7)CC6)nc5c3F)N3C[C@H]5CC[C@H](N5)[C@H]3CC4)c12 [Example 68, 5-ethynyl-6-fluoro-4-((5aR,6S,9R)-1-fluoro-12-((1-((4-fluoropiperidin-1-yl)methyl)cyclopropyl)methoxy)-4,5,5a,6,7,8,9,10-octahydro-3,10a,11,13,14-pentaaza-6,9-methanonaphtho[1,8-ab]heptalen-2-yl)naphthalen-2-ol]	0.6	0.05	
